From US20230113037A1 (Bayer Aktiengesellschaft, priority 2019, published 2023)
Like-named read-outs stand apart in the source and are kept apart here. Values belong to the compound of their own block, whether it stands above or below them.

Molecular target: T1, AHR (Mus musculus, UniProt P30561)
T1 sequence (P30561 1-848 P471L/N533S/M589L): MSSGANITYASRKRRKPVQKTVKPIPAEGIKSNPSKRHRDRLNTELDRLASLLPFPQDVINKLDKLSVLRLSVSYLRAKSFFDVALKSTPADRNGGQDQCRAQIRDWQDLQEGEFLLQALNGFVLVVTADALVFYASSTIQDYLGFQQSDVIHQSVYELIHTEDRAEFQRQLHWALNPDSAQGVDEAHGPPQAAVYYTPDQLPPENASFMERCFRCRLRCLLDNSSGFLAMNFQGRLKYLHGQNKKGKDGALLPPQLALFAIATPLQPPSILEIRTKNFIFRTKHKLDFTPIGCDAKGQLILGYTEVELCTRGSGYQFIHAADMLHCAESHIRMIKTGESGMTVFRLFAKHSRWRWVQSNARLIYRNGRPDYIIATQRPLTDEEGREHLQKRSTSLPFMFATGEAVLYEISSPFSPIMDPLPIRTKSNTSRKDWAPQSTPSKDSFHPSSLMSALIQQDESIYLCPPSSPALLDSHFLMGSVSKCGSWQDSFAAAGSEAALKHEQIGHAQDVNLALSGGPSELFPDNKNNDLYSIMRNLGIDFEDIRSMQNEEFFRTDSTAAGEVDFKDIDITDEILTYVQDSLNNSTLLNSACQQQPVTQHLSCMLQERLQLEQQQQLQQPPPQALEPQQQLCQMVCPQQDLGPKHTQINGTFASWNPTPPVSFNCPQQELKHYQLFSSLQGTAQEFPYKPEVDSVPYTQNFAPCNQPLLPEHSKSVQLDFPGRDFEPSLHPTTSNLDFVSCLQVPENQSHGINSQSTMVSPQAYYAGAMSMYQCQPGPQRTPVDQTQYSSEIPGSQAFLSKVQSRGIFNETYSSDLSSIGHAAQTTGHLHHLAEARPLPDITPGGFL
Test: In vitro assay 3: antagonism in mouse cell line (AHR transactivation, firefly luciferase reporter, kynurenic acid prestimulated)
Format: cell-based
Procedure: Examples were tested in selected biological assays one or more times. When tested more than once, data are reported as either average values or as median values, wherein • the average value, also referred to as the arithmetic mean value, represents the sum of the values obtained divided by the number of times tested, and • the median value represents the middle number of the group of values when ranked in ascending or descending order. If the number of values in the data set is odd, the median is the middle value. If the number of values in the data set is even, the median is the arithmetic mean of the two middle values.
In addition the cells were stably transfected with an AHR inducible firefly luciferase reporter gene construct that carried AHR-binding sites (DRE) in its promoter. Kynurenic acid is an endogenous AHR activating ligand and was used to prestimulate test cells prior to testing the antagonistic properties of compounds.
As positive inhibition control cells without addition of kynurenic acid were incubated. Normalization was done by positive and negative controls.
Firefly luciferase activity was determined by the SteadyGlo Luciferase Assay System (Promega, #E2550).

[1] = mouse Hepa 1c1c7 cells, 200 μM kynurenic acid, 20 hours, read-out: AHR Antagonism Mouse IC50
[2] = Hepa 1c1c7 cells, 200 μM kynurenic acid, 20 hours, firefly luciferase reporter, read-out: AHR Antagonism Mouse IC50

Structure (SMILES): Cn1cc(-c2nc3c4c(C5CC5)cccc4nc(NC4CNCCNC4=O)n3n2)cn1 (stereo not drawn) [Example 294, 6-{[10-cyclopropyl-2-(1-methyl-1H-pyrazol-4-yl)[1,2,4]triazolo[1,5-c]quinazolin-5-yl]amino}-1,4-diazepan-5-one]
IC50 [1]: 5430 nM

Structure (SMILES): O=C1NCCCC[C@H]1Nc1nc2c(Br)cccc2c2nc(-c3ccc(Cl)cc3)nn12 [Example 830, (3R)-3-{[7-bromo-2-(4-chlorophenyl)[1,2,4]triazolo[1,5-c]quinazolin-5-yl]amino}azepan-2-one]
IC50 [2]: > 20000 nM

Structure (SMILES): O=C1NCCCC[C@@H]1Nc1nc2ccccc2c2nc(-c3cc(C(F)(F)F)ccn3)nn12 [Example 364]
IC50 (read-out: AHR Antagonism Mouse IC50, mouse Hepa 1c1c7 cells, 200 μM kynurenic acid, 20 hours): 247 nM

Structure (SMILES): O=C1NCCC[C@H]1Nc1nc2ccccc2c2nc(-c3ccccc3Br)nn12 [Example 454, (3R)-3-{[2-(2-bromophenyl)[1,2,4]triazolo[1,5-c]quinazolin-5-yl]amino}piperidin-2-one]
IC50 [1]: 165 nM

Structure (SMILES): C[C@@H](Nc1nc2c(Br)cccc2c2nc(-c3cnn(C)c3)nn12)C(=O)NCCCN(C)C [Example 810, N^2-[7-bromo-2-(1-methyl-1H-pyrazol-4-yl)[1,2,4]triazolo[1,5-c]quinazolin-5-yl]-N-[3-(dimethylamino)propyl]-D-alaninamide]
IC50 [2]: 771 nM

Structure (SMILES): COc1ccc(-c2nc3c4ccccc4nc(NC4CCCNC4=O)n3n2)cc1 (single isomer, unassigned) [Example 37, 3-{[2-(4-methoxyphenyl)[1,2,4]triazolo[1,5-c]quinazolin-5-yl]amino}piperidin-2-one]
IC50 [1]: 238 nM

Structure (SMILES): COc1ccc(-c2nc3c4ccccc4nc(N[C@H](C)C(=O)O)n3n2)cc1 [Example 658, N-[2-(4-methoxyphenyl)[1,2,4]triazolo[1,5-c]quinazolin-5-yl]-D-alanine]
IC50 [1]: 450 nM

Structure (SMILES): O=C1NCCNCC1Nc1nc2cccc(Br)c2c2nc(-c3cccc(F)c3)nn12 (stereo not drawn) [Example 283, 6-{[10-bromo-2-(3-fluorophenyl)[1,2,4]triazolo[1,5-c]quinazolin-5-yl]amino}-1,4-diazepan-5-one]
IC50 [1]: 172 nM

Structure (SMILES): O=C1NCCNC[C@@H]1Nc1nc2c(Cl)cccc2c2nc(-c3ccc(F)cc3)nn12 [Example 964, (6S)-6-{[7-chloro-2-(4-fluorophenyl)[1,2,4]triazolo[1,5-c]quinazolin-5-yl]amino}-1,4-diazepan-5-one]
IC50 [2]: 4.6 nM

Structure (SMILES): O=C1NCCCC[C@H]1Nc1nc2c(Br)cccc2c2nc(-c3cnn(C(F)F)c3)nn12 [Example 827, (3R)-3-({7-bromo-2-[1-(difluoromethyl)-1H-pyrazol-4-yl][1,2,4]triazolo[1,5-c]quinazolin-5-yl}amino)azepan-2-one]
IC50 [2]: 0.409 nM

Structure (SMILES): C[C@@H](Nc1nc2ccccc2c2nc(-c3ccccc3OC(F)(F)F)nn12)C(=O)NCCN(C)C [Example 791, formic acid-N-[2-(dimethylamino)ethyl]-N^2-{2-[2-(trifluoromethoxy)phenyl][1,2,4]triazolo[1,5-c]quinazolin-5-yl}-D-alaninamide (1/1)]
IC50 (read-out: AHR Antagonism Mouse IC50, Hepa 1c1c7 cells, 200 μM kynurenic acid, 20 hours, firefly luciferase reporter): 264 nM

Structure (SMILES): C[C@@H](Nc1nc2ccccc2c2nc(-c3ccccc3OC(F)(F)F)nn12)C(=O)NCCN(C)C [Example 792, N-[2-(dimethylamino)ethyl]-N^2-{2-[2-(trifluoromethoxy)phenyl][1,2,4]triazolo[1,5-c]quinazolin-5-yl}-D-alaninamide]
IC50 [2]: 28.7 nM

Structure (SMILES): CC[C@@H](Nc1nc2ccccc2c2nc(-c3cccc(OC)c3)nn12)C(=O)O [Example 95, (2R)-2-{[2-(3-methoxyphenyl)[1,2,4]triazolo[1,5-c]quinazolin-5-yl]amino}butanoic acid]
IC50 [1]: 399 nM

Structure (SMILES): COc1ccc(-c2nc3c4c(Cl)cccc4nc(NC4CNCCNC4=O)n3n2)cc1 (stereo not drawn) [Example 292, 6-{[10-chloro-2-(4-methoxyphenyl)[1,2,4]triazolo[1,5-c]quinazolin-5-yl]amino}-1,4-diazepan-5-one]
IC50 [1]: 40.3 nM

Structure (SMILES): O=C1NCCNCC1Nc1nc2cccc(Cl)c2c2nc(-c3ccc(F)cc3)nn12 (single isomer, unassigned) [Example 298, 6-{[10-chloro-2-(4-fluorophenyl)[1,2,4]triazolo[1,5-c]quinazolin-5-yl]amino}-1,4-diazepan-5-one]
IC50 [1]: 63.3 nM

Structure (SMILES): COc1ccc(-c2nc3c4cc(Br)cc(Br)c4nc(N[C@@H]4CCCCNC4=O)n3n2)cc1 [Example 593, (3R)-3-{[7,9-dibromo-2-(4-methoxyphenyl)[1,2,4]triazolo[1,5-c]quinazolin-5-yl]amino}azepan-2-one]
IC50 [1]: 82.1 nM

Further compounds by falling IC50 [1], results first:

IC50 [1]: 30.1 nM
Structure (SMILES): COc1ccc(-c2nc3c4ccccc4nc(N[C@@H]4CN(C)CCNC4=O)n3n2)cc1 [Example 656, (6R)-6-{[2-(4-methoxyphenyl)[1,2,4]triazolo[1,5-c]quinazolin-5-yl]amino}-1-methyl-1,4-diazepan-5-one]

IC50 [1]: 24.7 nM
Structure (SMILES): Cn1cc(-c2nc3c4cccc(Br)c4nc(N[C@@H]4CNCCNC4=O)n3n2)cn1 [Example 267, (6R)-6-{[7-bromo-2-(1-methyl-1H-pyrazol-4-yl)[1,2,4]triazolo[1,5-c]quinazolin-5-yl]amino}-1,4-diazepan-5-one]

IC50 [1]: 17.5 nM
Structure (SMILES): O=C1NCCCC[C@@H]1Nc1nc2ccccc2c2nc(-c3ccccc3Br)nn12 [Example 453, (3S)-3-{[2-(2-bromophenyl)[1,2,4]triazolo[1,5-c]quinazolin-5-yl]amino}azepan-2-one]

IC50 [1]: 15.5 nM
Structure (SMILES): O=C1NCCCC[C@@H]1Nc1nc2c(Br)cccc2c2nc(-c3cccc(F)c3)nn12 [Example 209, (3S)-3-{[7-bromo-2-(3-fluorophenyl)[1,2,4]triazolo[1,5-c]quinazolin-5-yl]amino}azepan-2-one]

IC50 [1]: 10.6 nM
Structure (SMILES): CC[C@H](Nc1nc2ccccc2c2nc(-c3ccc(Cl)cc3OC(F)F)nn12)C(N)=O [Example 532, (2S)-2-({2-[4-chloro-2-(difluoromethoxy)phenyl][1,2,4]triazolo[1,5-c]quinazolin-5-yl}amino)butanamide]

IC50 [1]: 10 nM
Structure (SMILES): O=C1NCCCC1Nc1nc2ccccc2c2nc(-c3ccc(F)cc3)nn12 (stereo not drawn) [Example 72, 3-{[2-(4-fluorophenyl)[1,2,4]triazolo[1,5-c]quinazolin-5-yl]amino}piperidin-2-one]

IC50 [1]: 6.94 nM
Structure (SMILES): CSc1ccc(-c2nc3c4ccccc4nc(N[C@@H]4CNCCNC4=O)n3n2)cc1 [Example 256, (6R)-6-({2-[4-(methylsulfanyl)phenyl][1,2,4]triazolo[1,5-c]quinazolin-5-yl}amino)-1,4-diazepan-5-one]

IC50 [1]: 6.04 nM
Structure (SMILES): O=C1NCCC[C@H]1Nc1nc2ccccc2c2nc(-c3ccc(OC(F)(F)F)cc3)nn12 [Example 332, (3R)-3-({2-[4-(trifluoromethoxy)phenyl][1,2,4]triazolo[1,5-c]quinazolin-5-yl}amino)piperidin-2-one]

IC50 [1]: 4.88 nM
Structure (SMILES): O=C1NCCCC[C@@H]1Nc1nc2ccccc2c2nc(-c3ccccc3)nn12 [Example 1, (3S)-3-[(2-phenyl[1,2,4]triazolo[1,5-c]quinazolin-5-yl)amino]azepan-2-one]

IC50 [1]: 3.87 nM
Structure (SMILES): O=C1NCCC1Nc1nc2ccccc2c2nc(-c3ccc(F)cc3)nn12 (stereo not drawn) [Example 73, 3-{[2-(4-fluorophenyl)[1,2,4]triazolo[1,5-c]quinazolin-5-yl]amino}pyrrolidin-2-one]

IC50 [1]: 2.54 nM
Structure (SMILES): O=C1NCC[C@H]1Nc1nc2c(Br)cccc2c2nc(-c3ccc(F)cc3)nn12 [Example 217, (3R)-3-{[7-bromo-2-(4-fluorophenyl)[1,2,4]triazolo[1,5-c]quinazolin-5-yl]amino}pyrrolidin-2-one]

IC50 [1]: 1.18 nM
Structure (SMILES): COc1ccc(-c2nc3c4cccc(Cl)c4nc(N[C@@H]4CCCCNC4=O)n3n2)cc1 [Example 553, (3R)-3-{[7-chloro-2-(4-methoxyphenyl)[1,2,4]triazolo[1,5-c]quinazolin-5-yl]amino}azepan-2-one]

IC50 [1]: 0.927 nM
Structure (SMILES): O=C1NCCCC[C@H]1Nc1nc2ccccc2c2nc(-c3ccc(F)nc3)nn12 [Example 639, (3R)-3-{[2-(6-fluoropyridin-3-yl)[1,2,4]triazolo[1,5-c]quinazolin-5-yl]amino}azepan-2-one]

IC50 [1]: 0.644 nM
Structure (SMILES): O=C1NCCNC[C@H]1Nc1nc2ccccc2c2nc(-c3ccc(C(F)(F)F)cc3)nn12 [Example 259, (6R)-6-({2-[4-(trifluoromethyl)phenyl][1,2,4]triazolo[1,5-c]quinazolin-5-yl}amino)-1,4-diazepan-5-one]
